Assay results taken from US9840515B2, “Protein kinase D inhibitors” (University of Pittsburgh—Of the Commonwealth System of …, priority 2010, dated 2017).
Where two headings read alike, the source gives them in different places.

Key:
[1] = target: T1, PKD1 (Homo sapiens, UniProt Q15139); assay: IMAP-FP PKD1 assay; format: biochemical
T1 sequence (Q15139 1-912): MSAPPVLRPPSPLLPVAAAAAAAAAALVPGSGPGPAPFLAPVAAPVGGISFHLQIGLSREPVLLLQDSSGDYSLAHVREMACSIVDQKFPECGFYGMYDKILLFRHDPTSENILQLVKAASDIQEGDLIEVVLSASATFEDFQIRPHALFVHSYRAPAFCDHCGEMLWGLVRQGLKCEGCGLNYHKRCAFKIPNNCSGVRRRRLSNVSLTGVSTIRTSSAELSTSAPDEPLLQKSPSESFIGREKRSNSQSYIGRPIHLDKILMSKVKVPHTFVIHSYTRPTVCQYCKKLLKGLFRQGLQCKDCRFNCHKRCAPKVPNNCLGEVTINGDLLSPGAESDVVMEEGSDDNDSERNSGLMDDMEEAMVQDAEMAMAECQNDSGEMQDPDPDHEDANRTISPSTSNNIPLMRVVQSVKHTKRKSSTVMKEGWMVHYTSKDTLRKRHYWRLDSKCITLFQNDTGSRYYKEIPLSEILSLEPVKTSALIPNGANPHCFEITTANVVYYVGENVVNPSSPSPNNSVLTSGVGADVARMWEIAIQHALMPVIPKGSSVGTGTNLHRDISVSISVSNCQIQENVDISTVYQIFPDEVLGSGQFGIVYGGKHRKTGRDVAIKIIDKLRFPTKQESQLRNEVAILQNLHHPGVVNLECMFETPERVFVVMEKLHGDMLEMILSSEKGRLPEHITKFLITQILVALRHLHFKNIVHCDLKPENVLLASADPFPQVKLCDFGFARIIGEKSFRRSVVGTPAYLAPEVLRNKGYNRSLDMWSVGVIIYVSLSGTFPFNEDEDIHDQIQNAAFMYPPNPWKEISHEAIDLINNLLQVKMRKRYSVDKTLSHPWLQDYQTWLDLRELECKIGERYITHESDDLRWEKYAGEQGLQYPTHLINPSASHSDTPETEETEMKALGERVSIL
From the text: See Sharlow, E. R., et. al., J Biol Chem, 283: 33516-33526, (2008). The assay established the concentration of inhibitor that is required to reduce PKD1 activity by 50% (IC50), as shown in Table 2 above.

[2] = target: T2, purified recombinant human PKD1 (Homo sapiens, UniProt Q15139); assay: radiometric PKD kinase activity assay; format: biochemical
T2 sequence (Q15139 1-912): T1 sequence (Q15139 1-912)
Protocol: The radiometric PKD kinase assay was carried out by co-incubating 0.5 μCi γ-32P-ATP (PerkinElmer, Boston, Mass.), 20 μM ATP, 50 ng purified recombinant human PKD (PKD1, PKD2, PKD3) proteins, and 2.5 μg Syntide-2 (Sigma) in 50 μl kinase buffer that contains 50 mM Tris-HCl, pH 7.5, 4 mM MgCl2, 10 mM β-mercaptoethanol. The reaction was carried out under sub-saturation conditions, such that the initial rate was within linear kinetic range. The reaction mixture was incubated at 30° C. for 10 min, followed by spotting 25 μl of the mix onto a Whatman P81 filter paper (Whatman Inc, Clifton, N.J.). The filter papers were then washed three times in 0.5% phosphoric acid, air-dried, and counted using a Beckman LS6500 multi-purpose scintillation counter (Beckman, Fullerton, Calif.).

[3] = target: T1, PKD1; assay: Cellular inhibition of PMA-induced PKD1 S916 autophosphorylation in LNCaP cells (Western blot densitometry); format: cell-based; design: endogenous in cells; host or cells: LNCaP prostate cancer cells; settings: for IC50: PKD1 autophosphorylation at S916 in LNCaP cells
Protocol: The compound to be tested was dissolved in DMSO at an initial concentration of 10 mM. LNCaP prostate cancer cells were pre-treated with DMSO or increasing concentrations of the compound for 45 min, followed by treatment with or without 100 nM phorbol 12-myristate 13-acetate (PMA), an activator of PKD, for 20 min. The cells were harvested for Western blot analysis.
Briefly, cells were lysed in lysis buffer containing 200 mM Tris-HCl, pH 7.4, 100 μM 4-(2-aminoethyl)benzenesulfonyl fluoride, 1 mM EGTA, and 1% Triton X-100. Protein concentration was determined using the BCA Protein Concentration Assay reagent kit (Pierce). Equal amounts of protein were subjected to SDS-PAGE followed by electrotransfer to nitrocellulose membranes. Membranes were blocked with 5% nonfat milk in Tris-buffered saline and then probed with primary antibodies for p-S916-PKD1 (Millipore), p-S744/748-PKD1 (Cell Signaling Technology), or GAPDH (Enzo), followed by anti-mouse or anti-rabbit secondary antibodies conjugated to horseradish peroxidase (Bio-Rad). The bands were detected by incubating with the enhanced chemiluminescence (ECL) Western blotting detection reagent (Amersham Biosciences) and exposing to X-ray films.

[4] = read-out: IC50 radiometric PKD1
[5] = radiometric kinase activity assay, in vitro, read-out: IC50 PKD1

IC50 IMAP-FP PKD1 [1] | melting point | IC50 [1] | IC50 [2, 4] | Compound | IC50 [3] | IC50 [2, 5] | cellular activity fold lower than kb-NB142-70 [3]
not inhibitory | 103 to 110 °C | – | – | O=C1NCCC(=NOCc2ccccc2)c2c1oc1ccc(O)cc21 [kb-NB142-10, 7-Hydroxy-5-[(phenylmethoxy)azamethylene]-2H,3H,4H-azepino[5,6-d]benzo[b]furan-1-one] | – | – | –
not inhibitory | 298 to 301 °C | – | – | O=C1NCCCc2c1oc1cc(Cl)c(O)c(Cl)c21 [kb-NB96-43, 6,8-Dichloro-7-hydroxy-2,3,4,5-tetrahydro-[1]benzoxolo[2,3-c]azepin-1-one] | – | – | –
– | > 300 °C | 14900 ± 1200 nM | 850 ± 110 nM | O=C1NCCC(=O)c2c1oc1ccc(O)cc21 [kb-NB123-63, 7-Hydroxy-2H,3H,4H-azepino[5,6-d]benzo[b]furan-1,5-dione] | – | – | –
– | – | – | – | O=C1NCCCc2c1oc1ccc(O)cc21 [CID755673, 7-Hydroxy-2,3,4,5-tetrahydro-[1]benzoxolo[2,3-c]azepin-1-one, reference compound] | 11800 nM | 182 ± 27 nM | –
– | 234 to 236 °C | 21700 ± 520 nM | 1130 nM | O=C1NCCC(=NNc2ccccc2)c2c1oc1ccc(O)cc21 [kb-NB142-05, 7-Hydroxy-5-[(phenylamino)azamethylene]-2H,3H,4H-azepino[5,6-d]benzo[b]furan-1-one] | – | – | –
– | 244 to 247 °C | 19400 ± 1400 nM | 1570 ± 200 nM | O=C1NCCc2c1[nH]c1ccc(O)cc21 [kb-NB123-59, 2,3,4,9-Tetrahydro-6-hydroxy-1H-pyrido[3,4-b]indol-1-one] | – | – | –
not inhibitory | > 300 °C | – | – | CC(=O)Nc1ccc2[nH]c3c(c2c1)CCNC3=O [kb-NB123-93, N-(2,3,4,9-Tetrahydro-1-oxo-1H-pyrido[3,4-b]indol-6-yl)-acetamide] | – | – | –
– | 202 to 207 °C | 47100 ± 2500 nM | 9680 ± 1010 nM | Nc1ccc2[nH]c3c(c2c1)CCCNC3=O [kb-NB142-01] | – | – | –
– | > 300 °C | 1000 ± 100 nM | 240 nM | C/C=C/c1c(O)ccc2oc3c(c12)CCCNC3=O [kb-NB96-30, 6-[(E)-2-(Prop-1-enyl)]-7-hydroxy-2,3,4,5-tetrahydro-[1]benzoxolo[2,3-c]azepin-1-one] | – | – | –
– | 255 to 257 °C | 2400 ± 300 nM | 1580 nM | C=CCc1c(O)ccc2oc3c(c12)CCCNC3=O [kb-NB96-02, 6-Allyl-7-hydroxy-2,3,4,5-tetrahydro-[1]benzoxolo[2,3-c]azepin-1-one] | – | – | –
not inhibitory | – | – | – | O=C1NCCCc2c1[nH]c1ccc(OCc3ccccc3)cc21 [kb-NB123-53, 3,4,5,10-Tetrahydro-7-benzyloxy-azepino[3,4-b]indol-1(2H)-one] | – | – | –
– | 280 to 282 °C | 74400 ± 2200 nM | 15700 ± 190 nM | Nc1ccc2[nH]c3c(c2c1)CCNC3=O [kb-NB142-08, 6-Amino-2,3,4,9-tetrahydro-1H-pyrido[3,4-b]indol-1-one] | – | – | –
– | 250 to 254 °C | – | 757 nM | NCCN1CCSc2c(sc3ccc(O)cc23)C1=O [kb-NB165-75, 2,3-Dihydro-4-(2-aminoethyl)-9-hydroxy-[1]benzothieno[2,3-f]-1,4-thiazepin-5-one] | – | – | –
not inhibitory | 208 to 210 °C | – | – | O=C1NCCc2c1[nH]c1ccc(OCc3ccccc3)cc21 [kb-NB123-52, 2,3,4,9-Tetrahydro-6-benzyloxy-1H-pyrido[3,4-b]indol-1-one] | – | – | –
not inhibitory | > 300 °C | – | – | CC(=O)Nc1ccc2[nH]c3c(c2c1)CCCNC3=O [kb-NB123-94] | – | – | –
– | 280 to 282 °C | 24100 ± 710 nM | 1230 ± 210 nM | O=C1NCCC(O)c2c1oc1ccc(O)cc21 (centres unmarked) [kb-NB123-89, 5,7-Dihydroxy-2H,3H,4H,5H-azepino[5,6-d]benzo[b]furan-1-one] | – | – | –
– | > 300 °C | 1300 ± 50 nM | 240 nM | O=C1NCCCc2c1oc1ccc(O)c(F)c21 [kb-NB96-21, 6-Fluoro-7-hydroxy-2,3,4,5-tetrahydro-[1]benzoxolo[2,3-c]azepin-1-one] | – | – | –
– | 220 to 224 °C | 38200 ± 1170 nM | – | Cc1ccc(S(=O)(=O)NN=C2CCNC(=O)c3oc4ccc(O)cc4c32)cc1 [kb-NB142-11, 7-Hydroxy-5-({[(4-methylphenyl)sulfonyl]amino}azamethylene)-2H,3H,4H-azepino[5,6-d]benzo[b]furan-1-one] | – | – | –
not inhibitory | 192 to 194 °C | – | – | C=CCOc1ccc2oc3c(c2c1Cl)CCCNC3=O [kb-NB96-50, 7-Allyloxy-6-chloro-2,3,4,5-tetrahydro-[1]benzoxolo[2,3-c]azepin-1-one] | – | – | –
– | 327 to 332 °C | > 100000 nM | – | O=C1NCCCc2c1oc1cc(Cl)c(O)cc21 [kb-NB96-47-5, 8-Chloro-7-hydroxy-2,3,4,5-tetrahydro-[1]benzoxolo[2,3-c]azepin-1-one] | – | – | –
– | 265 to 268 °C | – | 450 ± 50 nM | CN1CCSc2c(sc3ccc(O)cc23)C1=O [kb-NB165-17, 2,3-Dihydro-4-methyl-9-hydroxy-[1]benzothieno[2,3-f]-1,4-thiazepin-5-one] | – | – | –
– | 198 to 200 °C | – | – | C=CCOc1ccc2oc3c(c2c1)CCCNC3=O [kb-NB77-84, 7-Allyloxy-2,3,4,5-tetrahydro-[1]benzoxolo[2,3-c]azepin-1-one] | – | 123 nM | –

Compound | IC50 IMAP-FP PKD1 [1] | melting point | IC50 [1] | IC50 [2, 4] | IC50 [3] | IC50 [2, 5] | cellular activity fold lower than kb-NB142-70 [3]
O=C1NCCCc2c1oc1ccc(O)c(Cl)c21 [kb-NB77-88, 6-Chloro-7-hydroxy-2,3,4,5-tetrahydro-[1]benzoxolo[2,3-c]azepin-1-one] | – | > 300 °C | 1400 ± 100 nM | 890 nM | – | – | –
O=C1NCCSc2c1sc1ccc(O)c(I)c21 [kb-NB165-31, 3,4-Dihydro-9-hydroxy-10-iodo-[1]benzothieno[2,3-f]-1,4-thiazepin-5(2H)-one] | – | 128 °C (dec.) | – | 110 ± 20 nM | 8600 ± 2000 nM | 114 nM | 4 fold
O=C1NCCSc2c1sc1ccc(N=C=S)cc21 [mcf292-05, 3,4-Dihydro-9-isothiocyanato-[1]benzothieno[2,3-f]-1,4-thiazepin-5(2H)-one] | – | 253 to 253.3 °C | – | 2770 nM | – | – | –
